Laboratory results as given in PubChem BioAssay (NCI).
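A five-concentration, 48-hour dose response in 96-well plates underlies each endpoint, interpolated linearly between surrounding concentrations. TGI denotes the concentration required for complete inhibition of growth.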

Key:
Test in all cases: NCI tumour cell line growth inhibition, 48 h
PC-3 prostate = tested on: PC-3 prostate
MDA-N = tested on: MDA-N
HCT-116 colon = tested on: HCT-116 colon
MOLT-4 leukemia = tested on: MOLT-4 leukemia
SK-MEL-2 melanoma = tested on: SK-MEL-2 melanoma
SR leukemia = tested on: SR leukemia
MCF7 breast = tested on: MCF7 breast
HT29 colon = tested on: HT29 colon
NCI-H522 lung = tested on: NCI-H522 lung
TK-10 renal = tested on: TK-10 renal
HOP-62 NSCLC = tested on: HOP-62 NSCLC
A498 renal = tested on: A498 renal
SK-OV-3 ovarian = tested on: SK-OV-3 ovarian
KM12 colon = tested on: KM12 colon
OVCAR-4 ovarian = tested on: OVCAR-4 ovarian
NCI-H460 lung = tested on: NCI-H460 lung
U251 CNS = tested on: U251 CNS
M14 melanoma = tested on: M14 melanoma
SF-268 CNS = tested on: SF-268 CNS
SNB-19 CNS = tested on: SNB-19 CNS
T-47D breast = tested on: T-47D breast
HOP-92 NSCLC = tested on: HOP-92 NSCLC
NCI/ADR-RES ovarian = tested on: NCI/ADR-RES ovarian
OVCAR-3 ovarian = tested on: OVCAR-3 ovarian
OVCAR-8 ovarian = tested on: OVCAR-8 ovarian
IGROV1 ovarian = tested on: IGROV1 ovarian
SN12C renal = tested on: SN12C renal
SNB-75 CNS = tested on: SNB-75 CNS
HL-60(TB) leukemia = tested on: HL-60(TB) leukemia
ACHN renal = tested on: ACHN renal
OVCAR-5 ovarian = tested on: OVCAR-5 ovarian
K-562 leukemia = tested on: K-562 leukemia
HCC-2998 colon = tested on: HCC-2998 colon
SW-620 colon = tested on: SW-620 colon
786-0 renal = tested on: 786-0 renal
BT-549 breast = tested on: BT-549 breast
CAKI-1 renal = tested on: CAKI-1 renal
A549 NSCLC = tested on: A549 NSCLC
HCT-15 colon = tested on: HCT-15 colon
HS 578T breast = tested on: HS 578T breast
LOX IMVI melanoma = tested on: LOX IMVI melanoma
NCI-H23 lung = tested on: NCI-H23 lung
SF-295 CNS = tested on: SF-295 CNS
MALME-3M melanoma = tested on: MALME-3M melanoma
RPMI-8226 leukemia = tested on: RPMI-8226 leukemia
MDA-MB-435 = tested on: MDA-MB-435
UACC-62 melanoma = tested on: UACC-62 melanoma
DU-145 prostate = tested on: DU-145 prostate
UACC-257 melanoma = tested on: UACC-257 melanoma
EKVX NSCLC = tested on: EKVX NSCLC
CCRF-CEM leukemia = tested on: CCRF-CEM leukemia
RXF 393 renal = tested on: RXF 393 renal
MDA-MB-231 breast = tested on: MDA-MB-231 breast
UO-31 renal = tested on: UO-31 renal
XF 498 CNS = tested on: XF 498 CNS
LXFL 529 NSCLC = tested on: LXFL 529 NSCLC
KM20L2 colon = tested on: KM20L2 colon
SF-539 CNS = tested on: SF-539 CNS
SK-MEL-28 melanoma = tested on: SK-MEL-28 melanoma
HOP-18 NSCLC = tested on: HOP-18 NSCLC
M19-MEL melanoma = tested on: M19-MEL melanoma
DMS 114 small cell lung = tested on: DMS 114 small cell lung
SNB-78 CNS = tested on: SNB-78 CNS
COLO 205 colon = tested on: COLO 205 colon
DLD-1 colon = tested on: DLD-1 colon
SK-MEL-5 melanoma = tested on: SK-MEL-5 melanoma
DMS 273 small cell lung = tested on: DMS 273 small cell lung
NCI-H226 lung = tested on: NCI-H226 lung

SMILES: OCCCN(CCc1ccc(Cl)c(Cl)c1)CCN1CCCC1
- TGI (PC-3 prostate): > 100 µM
- TGI (MDA-N): 42.7 µM
- TGI (HCT-116 colon): > 100 µM
- TGI (MOLT-4 leukemia): > 100 µM
- TGI (SK-MEL-2 melanoma): 36.6 µM
- TGI (SR leukemia): > 100 µM
- TGI (MCF7 breast): 79.9 µM
- TGI (HT29 colon): > 100 µM
- TGI (NCI-H522 lung): 54.5 µM
- TGI (TK-10 renal): > 100 µM
- TGI (HOP-62 NSCLC): > 100 µM
- TGI (A498 renal): 44.6 µM
- TGI (SK-OV-3 ovarian): > 100 µM
- TGI (KM12 colon): > 100 µM
- TGI (OVCAR-4 ovarian): > 100 µM
- TGI (NCI-H460 lung): > 100 µM
- TGI (U251 CNS): > 100 µM
- TGI (M14 melanoma): 32.9 µM
- TGI (SF-268 CNS): > 100 µM
- TGI (SNB-19 CNS): > 100 µM
- TGI (T-47D breast): > 100 µM
- TGI (HOP-92 NSCLC): > 100 µM
- TGI (NCI/ADR-RES ovarian): > 100 µM
- TGI (OVCAR-3 ovarian): > 100 µM
- TGI (OVCAR-8 ovarian): > 100 µM
- TGI (IGROV1 ovarian): > 100 µM
- TGI (SN12C renal): > 100 µM
- TGI (SNB-75 CNS): > 100 µM
- TGI (HL-60(TB) leukemia): > 100 µM
- TGI (ACHN renal): > 100 µM
- TGI (OVCAR-5 ovarian): > 100 µM
- TGI (K-562 leukemia): 46.2 µM
- TGI (HCC-2998 colon): 32.9 µM
- TGI (SW-620 colon): > 100 µM
- TGI (786-0 renal): 60.4 µM
- TGI (BT-549 breast): > 100 µM
- TGI (CAKI-1 renal): > 100 µM
- TGI (A549 NSCLC): > 100 µM
- TGI (HCT-15 colon): > 100 µM
- TGI (HS 578T breast): > 100 µM
- TGI (LOX IMVI melanoma): > 100 µM
- TGI (NCI-H23 lung): > 100 µM
- TGI (SF-295 CNS): > 100 µM
- TGI (MALME-3M melanoma): 41.5 µM
- TGI (RPMI-8226 leukemia): 70.6 µM
- TGI (MDA-MB-435): 53.4 µM
- TGI (UACC-62 melanoma): 31.5 µM
- TGI (DU-145 prostate): > 100 µM
- TGI (UACC-257 melanoma): 36 µM
- TGI (EKVX NSCLC): > 100 µM
- TGI (CCRF-CEM leukemia): > 100 µM
- TGI (RXF 393 renal): > 100 µM
- TGI (MDA-MB-231 breast): > 100 µM
- TGI (UO-31 renal): > 100 µM

SMILES: CC1OC(OC2C(Oc3cc(O)c4c(=O)cc(-c5ccc(O)cc5)oc4c3)OC(CO)C(O)C2O)C(O)C(O)C1O (stereo not drawn)
- TGI (XF 498 CNS): > 100 µM
- TGI (HCT-116 colon): > 100 µM
- TGI (MOLT-4 leukemia): > 100 µM
- TGI (SK-MEL-2 melanoma): > 100 µM
- TGI (LXFL 529 NSCLC): > 100 µM
- TGI (KM20L2 colon): > 100 µM
- TGI (HT29 colon): > 100 µM
- TGI (NCI-H522 lung): > 100 µM
- TGI (TK-10 renal): > 100 µM
- TGI (HOP-62 NSCLC): > 100 µM
- TGI (SF-539 CNS): > 100 µM
- TGI (A498 renal): > 100 µM
- TGI (SK-OV-3 ovarian): > 100 µM
- TGI (KM12 colon): > 100 µM
- TGI (SK-MEL-28 melanoma): > 100 µM
- TGI (OVCAR-4 ovarian): > 100 µM
- TGI (NCI-H460 lung): > 100 µM
- TGI (U251 CNS): > 100 µM
- TGI (HOP-18 NSCLC): > 100 µM
- TGI (M14 melanoma): > 100 µM
- TGI (SF-268 CNS): > 100 µM
- TGI (SNB-19 CNS): > 100 µM
- TGI (M19-MEL melanoma): > 100 µM
- TGI (HOP-92 NSCLC): > 100 µM
- TGI (OVCAR-3 ovarian): > 100 µM
- TGI (OVCAR-8 ovarian): > 100 µM
- TGI (IGROV1 ovarian): > 100 µM
- TGI (SN12C renal): > 100 µM
- TGI (SNB-75 CNS): > 100 µM
- TGI (DMS 114 small cell lung): > 100 µM
- TGI (HL-60(TB) leukemia): > 100 µM
- TGI (ACHN renal): > 100 µM
- TGI (OVCAR-5 ovarian): > 100 µM
- TGI (SNB-78 CNS): > 100 µM
- TGI (K-562 leukemia): > 100 µM
- TGI (COLO 205 colon): > 100 µM
- TGI (DLD-1 colon): > 100 µM
- TGI (786-0 renal): > 100 µM
- TGI (CAKI-1 renal): > 100 µM
- TGI (A549 NSCLC): > 100 µM
- TGI (HCT-15 colon): > 100 µM
- TGI (LOX IMVI melanoma): > 100 µM
- TGI (NCI-H23 lung): > 100 µM
- TGI (SF-295 CNS): > 100 µM
- TGI (MALME-3M melanoma): > 100 µM
- TGI (RPMI-8226 leukemia): > 100 µM
- TGI (UACC-62 melanoma): > 100 µM
- TGI (UACC-257 melanoma): > 100 µM
- TGI (EKVX NSCLC): > 100 µM
- TGI (SK-MEL-5 melanoma): > 100 µM
- TGI (CCRF-CEM leukemia): > 100 µM
- TGI (UO-31 renal): > 100 µM
- TGI (DMS 273 small cell lung): > 100 µM

SMILES: COc1ccc(/C=C2\CNC/C(=C\c3ccc(OC)cc3)C2=O)cc1
- TGI (XF 498 CNS): > 100 µM
- TGI (HCT-116 colon): 13 µM
- TGI (MOLT-4 leukemia): > 100 µM
- TGI (SK-MEL-2 melanoma): > 100 µM
- TGI (LXFL 529 NSCLC): > 100 µM
- TGI (KM20L2 colon): 89.6 µM
- TGI (SR leukemia): > 100 µM
- TGI (HT29 colon): > 100 µM
- TGI (TK-10 renal): > 100 µM
- TGI (HOP-62 NSCLC): > 100 µM
- TGI (SF-539 CNS): 41.6 µM
- TGI (SK-OV-3 ovarian): > 100 µM
- TGI (KM12 colon): > 100 µM
- TGI (SK-MEL-28 melanoma): > 100 µM
- TGI (OVCAR-4 ovarian): > 100 µM
- TGI (NCI-H460 lung): > 100 µM
- TGI (U251 CNS): > 100 µM
- TGI (HOP-18 NSCLC): > 100 µM
- TGI (M14 melanoma): > 100 µM
- TGI (SF-268 CNS): 79.2 µM
- TGI (SNB-19 CNS): > 100 µM
- TGI (M19-MEL melanoma): > 100 µM
- TGI (HOP-92 NSCLC): > 100 µM
- TGI (OVCAR-3 ovarian): > 100 µM
- TGI (OVCAR-8 ovarian): 35.2 µM
- TGI (IGROV1 ovarian): > 100 µM
- TGI (SN12C renal): > 100 µM
- TGI (SNB-75 CNS): > 100 µM
- TGI (DMS 114 small cell lung): > 100 µM
- TGI (HL-60(TB) leukemia): 38.5 µM
- TGI (ACHN renal): > 100 µM
- TGI (OVCAR-5 ovarian): > 100 µM
- TGI (SNB-78 CNS): > 100 µM
- TGI (K-562 leukemia): 65.2 µM
- TGI (COLO 205 colon): > 100 µM
- TGI (HCC-2998 colon): > 100 µM
- TGI (DLD-1 colon): > 100 µM
- TGI (SW-620 colon): > 100 µM
- TGI (786-0 renal): > 100 µM
- TGI (CAKI-1 renal): 81.2 µM
- TGI (A549 NSCLC): > 100 µM
- TGI (HCT-15 colon): > 100 µM
- TGI (LOX IMVI melanoma): 21.1 µM
- TGI (NCI-H23 lung): 60.1 µM
- TGI (SF-295 CNS): > 100 µM
- TGI (MALME-3M melanoma): > 100 µM
- TGI (RPMI-8226 leukemia): > 100 µM
- TGI (UACC-62 melanoma): > 100 µM
- TGI (UACC-257 melanoma): > 100 µM
- TGI (EKVX NSCLC): > 100 µM
- TGI (SK-MEL-5 melanoma): > 100 µM
- TGI (CCRF-CEM leukemia): 44.8 µM
- TGI (RXF 393 renal): 53.8 µM
- TGI (UO-31 renal): > 100 µM
- TGI (NCI-H226 lung): > 100 µM
- TGI (DMS 273 small cell lung): > 100 µM
